Assays:
Amaranthus retroflexus = assay: Pre-emergence herbicidal effect; type: in vivo
Text: (§1) 1. Pre-Emergence Herbicidal Effect and Crop Plant Compatibility Seeds of monocotyledonous and dicotyledonous weed plants and crop plants are laid out in wood-fiber pots in sandy loam and covered with soil. The compounds of the invention, formulated in the form of wettable powders (WP) or as emulsion concentrates (EC), are then applied to the surface of the covering soil as aqueous suspension or emulsion at a water application rate equating to 600 to 800 L/ha with addition of 0.2% wetting agent. After the treatment, the pots are placed in a greenhouse and kept under good growth conditions for the trial plants. The damage to the trial plants is scored visually after a trial duration of 3 weeks by comparison with untreated controls (herbicidal activity in percent (%): 100% efficacy=the plants have died, 0% efficacy=like control plants). [table]

Stellaria media [1] = assay: Pre-emergence herbicidal effect; type: in vivo
Text: as §1

Echinochloa crus-galli = assay: Pre-emergence herbicidal effect; type: in vivo; details: dosage 320 g a.i./ha
Text: as §1

Veronica persica = assay: Pre-emergence herbicidal effect; type: in vivo
Text: as §1

Viola tricolor [2] = assay: Pre-emergence herbicidal effect; type: in vivo
Text: as §1

Matricaria inodora [3] = assay: Pre-emergence herbicidal effect; type: in vivo
Text: as §1

Cyperus esculentus [4] = assay: Pre-emergence herbicidal effect; type: in vivo; details: dosage 320 g a.i./ha
Text: as §1

Polygpnum convolvulus [5] = assay: Pre-emergence herbicidal effect; type: in vivo
Text: as §1

[6] = logp (HCOOH), physicochemical characterization; details: HCOOH (formic acid)
Abutilon theophrasti = assay: Post-emergence herbicidal effect; type: in vivo; details: visual score after about 3 weeks
Description: (§2) [table] 2. Post-Emergence Herbicidal Effect and Crop Plant Compatibility Seeds of monocotyledonous and dicotyledonous weed and crop plants are laid out in sandy loam in wood-fiber pots, covered with soil and cultivated in a greenhouse under good growth conditions. 2 to 3 weeks after sowing, the test plants are treated at the one-leaf stage. The compounds of the invention, formulated in the form of wettable powders (WP) or as emulsion concentrates (EC), are then sprayed onto the green parts of the plants as aqueous suspension or emulsion at a water application rate equating to 600 to 800 L/ha with addition of 0.2% wetting agent. After the trial plants have been left to stand in a greenhouse under optimal growth conditions for about 3 weeks, the efficacy of the formulations is scored visually in comparison to untreated controls (herbicidal action in percent (%): 100% efficacy=the plants have died, 0% efficacy=like control plants).

Setaria viridis [7] = assay: Post-emergence herbicidal effect; type: in vivo
Description: as §2

Stellaria media [8] = assay: Post-emergence herbicidal effect; type: in vivo; details: visual score after about 3 weeks
Description: as §2

Viola tricolor [9] = assay: Post-emergence herbicidal effect; type: in vivo
Description: as §2

Polygpnum convolvulus [10] = assay: Post-emergence herbicidal effect; type: in vivo
Description: as §2

Setaria viridis [11] = assay: Pre-emergence herbicidal effect; type: in vivo; details: dosage 320 g a.i./ha
Text: as §1

Ipomoea purpurea = assay: Post-emergence herbicidal effect; type: in vivo
Description: as §2

Matricaria inodora [12] = assay: Post-emergence herbicidal effect; type: in vivo; details: visual score after about 3 weeks
Description: as §2

Cyperus esculentus [13] = assay: Post-emergence herbicidal effect; type: in vivo; details: dosage 320 g a.i./ha, visual score after about 3 weeks
Description: as §2

[14] = dosage 320 g a.i./ha, visual score after about 3 weeks
[15] = dosage 80 g a.i./ha, visual score after about 3 weeks
[16] = dosage cell empty, first line of the compound
[17] = dosage cell empty, second line of the compound

| chromatographic logP [6] | SMILES | Herbicidal activity against AMARE (Amaranthus retroflexus; dosage 80 g a.i./ha) | Herbicidal activity against AMARE (Amaranthus retroflexus; dosage 320 g a.i./ha) | Herbicidal activity against STEME (Stellaria media [1]; dosage 80 g a.i./ha) | Herbicidal activity against STEME (Stellaria media [1]; dosage 320 g a.i./ha) | Herbicidal activity against ECHCG (Echinochloa crus-galli) | Herbicidal activity against VERPE (Veronica persica; dosage 80 g a.i./ha) | Herbicidal activity against VERPE (Veronica persica; dosage 320 g a.i./ha) | Herbicidal activity against VIOTR (Viola tricolor [2]; dosage 320 g a.i./ha) | Herbicidal activity against MATIN (Matricaria inodora [3]; dosage 80 g a.i./ha) | Herbicidal activity against MATIN (Matricaria inodora [3]; dosage 320 g a.i./ha) | Herbicidal activity against POLCO (Polygpnum convolvulus [5]; dosage 80 g a.i./ha) | Herbicidal activity against ABUTH (Abutilon theophrasti; dosage 320 g a.i./ha) | Herbicidal activity against STEME (Stellaria media [8]; dosage 80 g a.i./ha) | Herbicidal activity against STEME (Stellaria media [8]; dosage 320 g a.i./ha) | Herbicidal activity against VIOTR (Viola tricolor [9]; [15]) | Herbicidal activity against VIOTR (Viola tricolor [9]; [14]) | Herbicidal activity against POLCO (Polygpnum convolvulus [10]; [15]) | Herbicidal activity against POLCO (Polygpnum convolvulus [10]; [14]) | Herbicidal activity against VIOTR (Viola tricolor [2]; dosage 80 g a.i./ha) | other results |
| --- | --- | --- | --- | --- | --- | --- | --- | --- | --- | --- | --- | --- | --- | --- | --- | --- | --- | --- | --- | --- | --- |
| 5.34 | C/C(=N\Oc1ccc(F)cc1)c1cnc(N[C@H]2c3cc(C)ccc3C[C@@H]2C)nc1 [Compound 1.101a, N-[(1R,2S)-2,6-Dimethyl-2,3-dihydro-1H-inden-1-yl]-5-[(1E)-N-(4-fluorophenoxy)ethanimidoyl]pyrimidine-2-amine] | 90% | 100% | 100% | 100% | 100% | 100% | 100% | 100% | 80% | 100% | 90% | 100% | 90% | 90% | 90% | 90% | 100% | 100% | – | Herbicidal activity against CYPES (Cyperus esculentus [4]): 90%; Herbicidal activity against ABUTH (Abutilon theophrasti; dosage 80 g a.i./ha): 90%; Herbicidal activity against SETVI (Setaria viridis [7]; [14]): 80% |
| – | CCO/N=C(\C)c1cnc(N[C@H]2c3cc(C)ccc3C[C@@H]2C)nc1 [Compound 1.103a, N-[(1R,2S)-2,6-Dimethyl-2,3-dihydro-1H-inden-1-yl]-5-[(1E)-N-ethoxyethanimidoyl]pyrimidine-2-amine] | 100% | 100% | 100% | 100% | 100% | – | – | 100% | 90% | 100% | – | 90% | 90% | 90% | 90% | 90% | 90% | 100% | 100% | Herbicidal activity against SETVI (Setaria viridis [11]): 100%; Herbicidal activity against POLCO (Polygpnum convolvulus [5]; dosage 320 g a.i./ha): 100%; Herbicidal activity against PHBPU (Ipomoea purpurea; [15]): 80%; Herbicidal activity against PHBPU (Ipomoea purpurea; [14]): 90%; Herbicidal activity against MATIN (Matricaria inodora [12]; dosage 320 g a.i./ha): 80% |
| 4.92 | CCO/N=C(/C)c1cnc(N[C@H]2c3cc(C)ccc3C[C@@H]2C)nc1 [Compound 1.103b, N-[(1R,2S)-2,6-dimethyl-2,3-dihydro-1H-inden-1-yl]-5-[(1Z)-N-ethoxyethanimidoyl]pyrimidine-2-amine] | 80% | 100% | 100% | 100% | 100% | 100% | 100% | 100% | 100% | 100% | 100% | 100% | 80% | 90% | 90% | 100% | 90% | 100% | 100% | Herbicidal activity against SETVI (Setaria viridis [11]): 90%; Herbicidal activity against POLCO (Polygpnum convolvulus [5]; dosage 320 g a.i./ha): 100%; Herbicidal activity against ABUTH (Abutilon theophrasti; dosage 80 g a.i./ha): 90%; Herbicidal activity against SETVI (Setaria viridis [7]; [14]): 80%; Herbicidal activity against PHBPU (Ipomoea purpurea; [14]): 90%; Herbicidal activity against MATIN (Matricaria inodora [12]; dosage 80 g a.i./ha): 80%; Herbicidal activity against MATIN (Matricaria inodora [12]; dosage 320 g a.i./ha): 100%; Herbicidal activity against CYPES (Cyperus esculentus [13]): 80% |
| – | CC/C(=N/OCc1ccc(Cl)cc1)c1cnc(N[C@H]2c3cc(C)ccc3C[C@@H]2C)nc1CC [Compound 1.115b, 5-{(1Z)-N-[(4-Chlorobenzyl)oxy]propanimidoyl}-N-[(1R,2S)-2,6-dimethyl-2,3-dihydro-1H-inden-1-yl]-4-ethylpyrimidine-2-amine] | – | – | – | 100% | – | 100% | 100% | 100% | – | 90% | – | – | – | – | – | – | – | – | 90% | Herbicidal activity against SETVI (Setaria viridis [7]; [16]): 100%; Herbicidal activity against SETVI (Setaria viridis [7]; [17]): 80%; Herbicidal activity against PHBPU (Ipomoea purpurea; [16]): 90%; Herbicidal activity against VIOTR (Viola tricolor [9]; [16]): 90%; Herbicidal activity against VIOTR (Viola tricolor [9]; [17]): 80%; Herbicidal activity against POLCO (Polygpnum convolvulus [10]; [16]): 80% |

From patent publication US10806142B2, “2-amino-5-ketoxime-pyrimidine derivatives and their use for controlling undesired plant growth” (Bayer CropScience Aktiengesellschaft, priority 2015, dated 2020)
